Assay [1] relates to 3-DG. Briefly: Quantitative determination of 3-DG (HPLC) after reaction of amino acid or biological protein with carbohydrates at 37° C. for 42 days. In kind it is biochemical. The note with it: for 3-DG: 37° C., 42 days. The method, then: (§1) Amino acid or biological protein, carbohydrates and a phosphate buffer solution were charged in a 50 mL polypropylene centrifuge tube in each amount shown in Table 8, followed by sealing and stirring, and then the mixture was reacted in an incubator at 37° C. for 42 days. Next, the reactant was fractionated by centrifugation at 3,000 rpm for 3 hours using an ultrafiltration unit (VIVA SPIN 20, manufactured by Sartorius Corporation). The obtained low molecular weight fraction was used as a sample for determination of 3-DG, while the obtained high molecular weight fraction was used as a sample for the determination of fluorescent AGEs. Amino acid, biological protein and carbohydrates used are as follows:
In the same manner as in Test Example 1, except that the low molecular weight fraction prepared as mentioned above was used as a sample, quantitative determination of 3-DG was performed. In the same manner as in Test Example 2, except that the high molecular weight fraction prepared as mentioned above was used as a sample, determination of fluorescent AGEs was performed.
(§2) Amino acid, carbohydrates and a phosphate buffer solution were charged in a 50 mL polypropylene centrifuge tube in each amount shown in Table 10, followed by sealing and stirring, and then the mixture was reacted in an incubator at 37° C. for 42 days. Next, the reactant was filtered through a 0.2 μm filter and the obtained filtrate was used as a sample. Amino acid and carbohydrates used are as follows:
To 2 mL of a sample, the same amount of a 60% perchloric acid solution was added to deproteinize the sample. The sample was neutralized with 4 mL of an aqueous saturated sodium hydrogen carbonate solution and 0.8 mL of a 0.1% methanol solution of 2,3-diaminonaphthalene was added, and then the mixture was reacted at 4° C. for 16 hours. Next, the reactant was extracted with 4.4 mL of ethyl acetate, concentrated to dryness using an evaporator, dissolved in 5 mL of methanol, and then filtered through a 0.45 μm filter. The filtrate was subjected to high-performance liquid chromatography and 3-DG was quantitatively determined under the following measurement conditions.
Injection amount: 20 μL Column: TSK-GEL, ODS-80Ts (4.6×150 mm, manufactured by TOSOH CORPORATION) Column temperature: 30° C. Mobile phase: 50 mM phosphoric acid:methanol:acetonitrile=7:1.5:1.5 Flow rate: 1 mL/min.
as §1, with “Biological proteins,” for “Amino acid or biological protein,”, “are” for “were”, “12,” for “8,”, “AGEs, pentosidine, CML, RAGE agonist activity and RAGE antagonist activity. Biological proteins” for “AGEs. Amino acid, biological protein”
(§3) In the same manner as in Test Example 4, except that the low molecular weight fraction prepared as mentioned above was used as a sample, quantitative determination of 3-DG was performed. In the same manner as in Test Example 4, except that the high molecular weight fraction was filtered through a 0.2 μm filter and the filtrate was used as a sample, fluorescent AGEs, pentosidine, CML, RAGE agonist activity and RAGE antagonist activity were evaluated.
Collagen, carbohydrates and a phosphate buffer solution were charged in a 50 mL polypropylene centrifuge tube in each amount shown in Table 14, followed by sealing and stirring, and then the mixture was reacted in an incubator at 37° C. for 42 days. Next, the reactant was fractionated by centrifugation at 3,000 rpm for 3 hours using an ultrafiltration unit (VIVA SPIN 20, manufactured by Sartorius Corporation). […]

For assay [2], the system named is CML. Briefly: Quantitative determination of CML after reaction at 37° C. for 42 days. The settings on record: for CML: 37° C., 42 days. In kind it is biochemical. The method, then:
as §2
Using CircuLex CML/Nε-(carboxymethyl) lysine ELISA kit (manufactured by CycLex Co., Ltd.), quantitative determination of CML was performed in the following manner. Thirty (30) or more minutes before use, reagents and CML solid-phase wells were put to room temperature. By adding 1 mL of ultrapure water (Milli-Q water) to a CML-HSA standard powder, a master standard was prepared. By performing dilution with standard dilution buffers, standards 1 to 7 were prepared. The sample was diluted as necessary with sample dilution buffers. A CML-HSA standard and 60 μL of the sample were dispensed into a 96-well plate, which is not an accessory to the kit. Next, ultrapure water (Milli-Q water) was added to a first antibody powder, and by diluting with sample dilution buffers, a first antibody solution was prepared; 60 μL of the antibody solution was dispensed into the plate and mixed. After 100 μL of the mixture was added to CML solid-phase wells, the mixture was reacted at 25° C. for 1 hour while being shaken at 300 rpm. Then, the reaction solution was discarded, and 350 μL of rinsing fluid was dispensed to wash the plate. The washing was performed for 4 times. After liquid on the plate was removed, 100 μL of a second antibody solution was dispensed and reacted at 25° C. for 1 hour while being shaken at 300 rpm. The reaction solution was discarded, and the plate was washed for 4 times with 350 μL of rinsing fluid again. Liquid on the plate was removed, and 100 μL of a color coupler was dispensed. Then, the solution was left to stand for 10 minutes under a light shielding condition while being shaken at 300 rpm. Finally, 100 μL of a reaction stop solution was dispensed, and within 30 minutes after the dispensing, measurement was performed at main wavelength 450 nm/reference wavelength 595 nm using a micro-plate reader. The concentration of CML was determined using the calibration curve of a CML standard solution, based on measurement values of the sample.
as §1, with “Biological proteins,” for “Amino acid or biological protein,”, “are” for “were”, “12,” for “8,”, “AGEs, pentosidine, CML, RAGE agonist activity and RAGE antagonist activity. Biological proteins” for “AGEs. Amino acid, biological protein”
as §3
Collagen, carbohydrates and a phosphate buffer solution were charged in a 50 mL polypropylene centrifuge tube in each amount shown in Table 14, followed by sealing and stirring, and then the mixture was reacted in an incubator at 37° C. for 42 days. […]

The mark [3] stands for this setting: Test Example 3, amino acid (lysine:arginine 1:1) 0.4 g + glucose 1.8 g or maltitol 3.4 g.
[4] abbreviates: Test Example 3, bovine serum albumin 0.4 g + glucose 1.8 g or maltitol 3.4 g.
[5] abbreviates: Test Example 4, amino acid 0.4 g + carbohydrate 1.8 g.
Where [6] appears, read: Test Example 5, bovine serum albumin 0.4 g + carbohydrate 1.8 g.
The mark [7] stands for this setting: Test Example 5, human serum albumin 0.4 g + carbohydrate 1.8 g.
Setting [8] is: Test Example 5, γ-globulin 0.4 g + carbohydrate 1.8 g.
[9] abbreviates: Test Example 6, collagen 0.015 g + carbohydrate 1.8 g.
Where [10] appears, read: Test Example 6, collagen 0.015 g + carbohydrate 1.8 g, hydrolysed high molecular weight fraction.
[11] abbreviates: Test Example 4, amino acid, compared with sections containing glucose and fructose.
The mark [12] stands for this setting: Test Example 5, bovine serum albumin, human serum albumin, γ-globulin, compared with sections containing fructose.
Setting [13] is: Test Example 5, bovine serum albumin, human serum albumin, γ-globulin, compared with sections containing glucose.
The mark [14] stands for this setting: Test Example 6, collagen, compared with sections containing glucose and fructose.

Regarding `O=C[C@H](O)[C@@H](O)[C@H](O)[C@H](O)CO` [Glucose], the 3-DG in assay [1] (setting [3]) is 22,761 nmol/1 g of protein; in assay [1] (setting [4]) it was 29,938 nmol/1 g of protein; in assay [1] (setting [5]) it was 8310 nmol/1 mL of reaction solution; in assay [1] (setting [6]), 10253 nmol/1 mL of reaction solution; in assay [1] (setting [7]) it was 2575 nmol/1 mL of reaction solution; in assay [1] (setting [8]), 877 nmol/1 mL of reaction solution. In addition, the 3-DG in assay [1] (setting [9]) is 232 nmol/1 mL of reaction solution. Moreover, the CML is 1197 nmol/1 mL of reaction solution in assay [2] (setting [5]); 309 nmol/1 mL of reaction solution in assay [2] (setting [6]); 1749 nmol/1 mL of reaction solution in assay [2] (setting [7]); 3628 nmol/1 mL of reaction solution in assay [2] (setting [8]); 475 nmol/1 mL of reaction solution in assay [2] (setting [10]).
In the case of `O=C(CO)[C@@H](O)[C@H](O)[C@H](O)CO` [Fructose], the 3-DG in assay [1] (setting [5]) is 904 nmol/1 mL of reaction solution; in assay [1] (setting [6]) it was 5316 nmol/1 mL of reaction solution; in assay [1] (setting [7]), 2358 nmol/1 mL of reaction solution; in assay [1] (setting [8]), 877 nmol/1 mL of reaction solution; in assay [1] (setting [9]) it was 1447 nmol/1 mL of reaction solution. The CML in assay [2] (setting [5]) is recorded as 519 nmol/1 mL of reaction solution; in assay [2] (setting [6]), 1046 nmol/1 mL of reaction solution; in assay [2] (setting [7]) it was 4626 nmol/1 mL of reaction solution; in assay [2] (setting [8]) it was 3813 nmol/1 mL of reaction solution; in assay [2] (setting [10]), 452 nmol/1 mL of reaction solution.
`OC[C@@H](O)[C@@H](O)[C@H](O)[C@@H](O)CO` [Sorbitol]: the 3-DG in assay [1] (setting [5]) is 13 nmol/1 mL of reaction solution; in assay [1] (setting [6]) it was 33 nmol/1 mL of reaction solution; in assay [1] (setting [7]) it was 78 nmol/1 mL of reaction solution; in assay [1] (setting [8]), 21 nmol/1 mL of reaction solution; in assay [1] (setting [9]) it was 24 nmol/1 mL of reaction solution. Moreover, the “production of 3-DG” value in assay [1] (setting [11]) is given as “significantly decreased”; in assay [1] (setting [12]), “significantly decreased”; in assay [1] (setting [13]), “decreased”; in assay [1] (setting [14]), “significantly decreased”. Also, the CML is 57 nmol/1 mL of reaction solution in assay [2] (setting [5]); 10 nmol/1 mL of reaction solution in assay [2] (setting [6]); 69 nmol/1 mL of reaction solution in assay [2] (setting [7]); 29 nmol/1 mL of reaction solution in assay [2] (setting [8]); 445 nmol/1 mL of reaction solution in assay [2] (setting [10]). Also, the “production of CML” value in assay [2] (setting [11]), in assay [2] (setting [12]), in assay [2] (setting [13]) and in assay [2] (setting [14]) was “decreased” each time.
Regarding `OC[C@@H](O)[C@@H](O[C@H]1O[C@H](CO)[C@@H](O)[C@H](O)[C@H]1O)[C@H](O)[C@@H](O)CO` [Maltitol], the 3-DG in assay [1] (setting [3]) is 127 nmol/1 g of protein; in assay [1] (setting [4]), 1,181 nmol/1 g of protein. Moreover, the “production of 3-DG” value in assay [1] (Test Example 3, amino acids and bovine serum albumin, compared with sections containing glucose) is “significantly decreased”.

(Values after patent publication US20130287890A1, “INHIBITOR OF THE PRODUCTION OF ADVANCED GLYCATION END PRODUCTS” (UENO FINE CHEMICALS INDUSTRY, LTD., priority 2012, published 2013).)
